In patent US20070248668A1, “Pharmaceutical compositions and uses thereof” (priority 2006, published 2007):
≈ marks a conversion by molar mass, not a printed value.

What was measured:
[1] = Pharmacokinetics after single peroral 5 mg rifalazil, fed and fasted; format: in vivo; conditions: liquid-filled vs microgranulated, beagle dogs
Experimental: Pharmacokinetic parameters were determined following a single peroral administration of 5 mg of rifalazil in healthy male beagle dogs. The rifalazil was formulated either as a liquid-filled capsule of Example 5 or as a powder-filled capsule containing microgranulated rifalazil as described in U.S. Pat. No. 5,547,683.
Both formulations were administered under fed and fasted conditions. All animals were fasted overnight prior to dosing. Animals designated as “fed” were administered a blended combination of dog chow and water in a 1:3 ratio (e.g. 250 g chow and 750 g water) via oral gavage at a dose volume of 20 mL/kg within approximately 30 minutes prior to dosing and food was provided Ad-libitum after approximately 4 hours following dosing. Animals in “fasted” groups were not fed prior to dosing and food was withheld until after approximately 4 hours after dosing. […]
Pharmacokinetic endpoints and parameters were calculated by noncompartmental analysis (NCA) using WinNonlin®.
The pharmacokinetic parameters Tmax, Cmax, AUCt, AUC∞, T1/2 (elimination), and F (bioavailability) were calculated as well as the coefficient of variation (CV) in each. […]

[2] = Rifalazil solubility in surfactants and surfactant mixtures; format: physicochemical; conditions: thermodynamic from solid
Experimental: The solubility of rifalazil in various surfactants and surfactant mixtures was measured. Excess Rifalazil, drug substance, was equilibrated with the excipient or excipient blend at the indicated temperature for 24 hrs under constant mixing. At the end of the equilibration time, insoluble drug was removed by centrifugation and the supernatant was assayed by UV spectroscopy and/or HPLC to determine the concentration of Rifalazil.

CO[C@H]1/C=C/O[C@@]2(C)Oc3c(C)c(O)c4c(=O)c(c5oc6cc(N7CCN(CC(C)C)CC7)cc(O)c6nc-5c4c3C2=O)NC(=O)/C(C)=C\C=C\[C@H](C)[C@H](O)[C@@H](C)[C@@H](O)[C@@H](C)[C@H](OC(C)=O)[C@@H]1C [Rifalazil]
effect of changes in the formulation upon the elimination half-life (T1/2) [1]: no effect
solubility at 24 h ([2]; Formulation M1 (excipient blend), aqueous with cosolvent or surfactant or cyclodextrin, in Formulation M1, 24 hrs equilibration): 15.5 mg/mL (≈ 16.5 mM)
solubility at 24 h ([2]; Formulation M3 (excipient blend), aqueous with cosolvent or surfactant or cyclodextrin, in Formulation M3, 24 hrs equilibration): 25.8 mg/mL (≈ 27.4 mM)
solubility at 24 h ([2]; Formulation M4 (excipient blend), aqueous with cosolvent or surfactant or cyclodextrin, in Formulation M4, 24 hrs equilibration): 34.1 mg/mL (≈ 36.2 mM)
solubility at 24 h ([2]; Formulation M5 (excipient blend), aqueous with cosolvent or surfactant or cyclodextrin, in Formulation M5, 24 hrs equilibration): 28.4 mg/mL (≈ 30.1 mM)
solubility at 24 h ([2]; Formulation M6 (excipient blend), aqueous with cosolvent or surfactant or cyclodextrin, in Formulation M6, 24 hrs equilibration): 30.8 mg/mL (≈ 32.8 mM)
solubility at 24 h ([2]; Formulation M8 (excipient blend), aqueous with cosolvent or surfactant or cyclodextrin, in Formulation M8, 24 hrs equilibration): 26.9 mg/mL (≈ 28.6 mM)
solubility at 24 h ([2]; Formulation M9 (excipient blend), aqueous with cosolvent or surfactant or cyclodextrin, in Formulation M9, 24 hrs equilibration): 19.6 mg/mL (≈ 20.8 mM)
solubility at 24 h ([2]; Formulation M10 (excipient blend), aqueous with cosolvent or surfactant or cyclodextrin, in Formulation M10, 24 hrs equilibration): 36.9 mg/mL (≈ 39.2 mM)
solubility at 24 h ([2]; Formulations A and B (excipient blend), aqueous with cosolvent or surfactant or cyclodextrin, in Formulations A and B, 24 hrs equilibration): 23 mg/mL (≈ 24.4 mM)
solubility at 24 h ([2]; Formulations C and D (excipient blend), aqueous with cosolvent or surfactant or cyclodextrin, in Formulations C and D, 24 hrs equilibration): 21 mg/mL (≈ 22.3 mM)
solubility at 24 h ([2]; aqueous with cosolvent or surfactant or cyclodextrin, in Cremophor ELP, 24 hrs equilibration at 37° C.): 35 mg/mL (≈ 37.2 mM)
solubility at 24 h ([2]; aqueous with cosolvent or surfactant or cyclodextrin, in Cremophor RH40, 24 hrs equilibration at 37° C.): 23 mg/mL (≈ 24.4 mM)
solubility at 24 h ([2]; aqueous with cosolvent or surfactant or cyclodextrin, in Labrafil M 1944 CS, 24 hrs equilibration): 41.6 mg/mL (≈ 44.2 mM)
solubility at 24 h ([2]; aqueous with cosolvent or surfactant or cyclodextrin, in Labrafil M 19944 CS:Etocas 35 (5:1), 24 hrs equilibration): 29 mg/mL (≈ 30.8 mM)
solubility at 24 h ([2]; aqueous with cosolvent or surfactant or cyclodextrin, in Labrasol, 24 hrs equilibration): 23 mg/mL (≈ 24.4 mM)
solubility at 24 h ([2]; aqueous with cosolvent or surfactant or cyclodextrin, in Lauroglycol 90, 24 hrs equilibration): 40 mg/mL (≈ 42.5 mM)
solubility at 24 h ([2]; aqueous with cosolvent or surfactant or cyclodextrin, in TPGS, 24 hrs equilibration at 37° C.): 22 mg/mL (≈ 23.4 mM)
solubility at 24 h ([2]; oil or lipid, in Oleic Acid, 24 hrs equilibration): 59 mg/mL (≈ 62.7 mM)
solubility at 24 h ([2]; oil or lipid, in Peceol, 24 hrs equilibration): 14 mg/mL (≈ 14.9 mM)
solubility at 24 h ([2]; organic solvent or mixture, in PEG 400, 24 hrs equilibration): 8 mg/mL (≈ 8.5 mM)
solubility at 24 h ([2]; organic solvent or mixture, in PEG 1500, equilibration at 60° C. to melt PEG 1500): 62 mg/mL (≈ 65.9 mM)
